According to the supplement of paper PMC10307832:

Tests used:
Test in all cases: relative viability (nuclei count vs DMSO), 5 days (fraction); higher = more cells survive
[1] = compound: Cc1ccc(Nc2nccc(N(C)c3ccc4c(C)n(C)nc4c3)n2)cc1S(N)(=O)=O [Pazopanib] + CC(=O)c1c(C)c2cnc(Nc3ccc(N4CCNCC4)cn3)nc2n(C2CCCC2)c1=O [Palbociclib] (partner 0.5 µM)
In short: (§1)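 One day after seeding in 1536-well plates, lung cancer cell lines were dosed by pin tool. Dosing was either single-drug or a fixed anchor-drug dose plus five library-drug doses (not always all listed) in √10 steps. After 5 days, nuclei were stained in one fix-and-stain step and counted on 4× images, and relative viability is the nuclei count of treated wells over that of vehicle wells, given as the median of duplicate plates.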

[2] = compound: Cc1ccc(C(=O)Nc2ccc(CN3CCN(C)CC3)c(C(F)(F)F)c2)cc1C#Cc1cnc2cccnn12 [Ponatinib] + CC(=O)c1c(C)c2cnc(Nc3ccc(N4CCNCC4)cn3)nc2n(C2CCCC2)c1=O [Palbociclib] (partner 0.5 µM)
In short: as §1

[3] = compound: Cc1ccc(C(=O)Nc2ccc(CN3CCN(C)CC3)c(C(F)(F)F)c2)cc1C#Cc1cnc2cccnn12 [Ponatinib] + NC(=O)Nc1cc(-c2cccc(F)c2)sc1C(=O)N[C@H]1CCCNC1 [AZD7762] (partner 0.2 µM)
In short: as §1

[4] = compound: Cc1ccc(C(=O)Nc2ccc(CN3CCN(C)CC3)c(C(F)(F)F)c2)cc1C#Cc1cnc2cccnn12 [Ponatinib] + CCNC(=O)c1noc(-c2cc(C(C)C)c(O)cc2O)c1-c1ccc(CN2CCOCC2)cc1 [Luminespib] (partner 0.01 µM)
In short: as §1

Cell Line | relative viability ([1]; first compound 0.01 µM) | relative viability ([1]; first compound 0.03162 µM) | relative viability ([1]; first compound 0.1 µM) | relative viability ([1]; first compound 0.3162 µM) | relative viability ([1]; first compound 1 µM) | relative viability ([2]; first compound 0.002 µM) | relative viability ([2]; first compound 0.006325 µM) | relative viability ([2]; first compound 0.06325 µM) | relative viability ([2]; first compound 0.2 µM) | relative viability ([3]; first compound 0.002 µM) | relative viability ([3]; first compound 0.006325 µM) | relative viability ([3]; first compound 0.06325 µM) | relative viability ([3]; first compound 0.2 µM) | relative viability ([4]; first compound 0.002 µM) | relative viability ([4]; first compound 0.006325 µM) | relative viability ([4]; first compound 0.06325 µM) | relative viability ([4]; first compound 0.2 µM)
HCC-44 | 0.921 | 0.932 | 0.943 | 0.982 | 0.948 | 0.891 | 0.981 | 0.932 | 0.852 | 0.992 | 1.02 | 1.02 | 0.997 | 0.96 | 0.976 | 1.22 | 1.01
HCC-827 | 0.558 | 0.456 | 0.516 | 0.444 | 0.471 | 0.537 | 0.483 | 0.533 | 0.497 | 0.185 | 0.216 | 0.182 | 0.253 | 0.476 | 0.914 | 0.446 | 0.589
NCI-H1623 |  |  |  |  |  |  |  |  |  |  |  |  |  | 0.372 | 0.484 | 0.491 | 0.426
NCI-H2405 | 0.467 | 0.531 | 0.535 | 0.519 | 0.583 | 0.487 | 0.476 | 0.501 | 0.473 | 0.622 | 0.73 | 0.705 | 0.542 | 0.664 | 0.833 | 0.941 | 0.64
PC-3 [JPC-3] |  | 0.556 | 0.341 | 0.522 | 0.519 |  | 0.576 | 0.608 | 0.544 |  | 0.901 | 1 | 0.873 | 0.649 | 0.697 | 0.811 | 0.668
NCI-H1651 | 0.51 | 0.555 | 0.523 | 0.489 | 0.555 | 0.529 | 0.539 | 0.557 | 0.552 | 0.336 | 0.465 | 0.458 | 0.509 | 0.986 | 0.864 | 0.915 | 1.05
HARA | 0.238 | 0.255 | 0.295 | 0.254 | 0.295 | 0.246 | 0.332 | 0.228 | 0.246 | 0.382 | 0.351 | 0.31 | 0.356 | 0.683 | 0.948 | 0.749 | 0.682
NCI-H1650 | 0.333 | 0.433 | 0.375 | 0.349 | 0.393 | 0.345 | 0.365 | 0.413 | 0.335 |  |  |  |  | 0.255 | 0.236 | 0.2 | 0.186
NCI-H1793 |  | 0.352 | 0.3 | 0.341 | 0.399 | 0.328 | 0.327 | 0.394 | 0.413 | 0.406 | 0.466 | 0.282 | 0.178 | 0.479 | 0.212 | 0.147 | 0.184
NCI-H2347 | 0.422 | 0.452 | 0.406 | 0.449 | 0.498 | 0.504 | 0.441 | 0.451 | 0.404 | 0.747 | 0.75 | 0.626 | 0.662 | 0.6 | 0.544 | 0.487 | 0.435
LU99A |  | 0.39 | 0.447 | 0.444 | 0.416 | 0.37 | 0.433 | 0.407 | 0.363 | 0.308 | 0.421 | 0.399 | 0.48 | 0.288 | 0.25 | 0.274 | 0.242
NCI-H1355 | 0.33 | 0.4 | 0.426 | 0.407 | 0.45 | 0.43 | 0.432 | 0.492 | 0.439 | 0.696 | 0.742 | 0.829 | 0.717 | 0.688 | 0.667 | 0.874 | 0.709
HCC-78 | 0.465 | 0.511 | 0.4 | 0.462 | 0.432 | 0.422 | 0.528 | 0.418 | 0.471 | 0.52 | 0.537 | 0.669 | 0.647 |  |  |  | 
NCI-H1563 |  |  |  |  |  |  |  |  |  |  |  |  |  | 0.48 | 0.535 | 0.595 | 0.476
HCC-15 | 0.7 | 0.708 | 0.729 | 0.752 | 0.788 | 0.675 | 0.752 | 0.798 | 0.672 | 1.18 | 1.19 | 1.32 | 1.31 | 0.306 | 0.22 | 0.661 | 0.212
EKVX | 0.378 | 0.461 | 0.395 | 0.368 | 0.423 | 0.382 | 0.419 | 0.458 | 0.438 | 0.7 | 0.766 | 0.673 | 0.606 | 0.941 | 0.959 | 0.954 | 0.871
NCI-H2087 | 0.21 | 0.223 | 0.275 | 0.271 | 0.256 | 0.259 | 0.25 | 0.259 | 0.329 | 1.05 | 1.07 | 1.43 | 1.19 | 0.167 | 0.135 | 0.178 | 0.176
